Results on 1 molecule are retold here after patent publication US20030130180A1, “Utilization of an aminopeptidase inhibitor” (priority 2000, published 2003).

In the assay the test system is tumor cells and immune cells. Nature of the assay: Cell-biological experiments on blocking of polarization of tumor cells and immune cells. The assay is classed as cell-based. To be noted: general statement. The source says:
By means of a method of simultaneously detecting a number of cell surface proteins, it has been established that aminopeptidases will control cell surface proteins which are not part of the class of proteolytic enzymes, but belong to the class of the adhesion molecules, which adhesion molecules—in a certain combination and geometric array—will be decisive for the polarization of the cells. Consequently, aminopeptidases appear to be superordinate control proteins in a protein network consisting of up to 30 different cell surface protein species which—through specific interaction with one another—will control polarization of tumor cells and other invasive cells such as immune cells and which are listed above. The inhibition of at least one aminopeptidase will lead to a reproducible modification of surface protein combinations on the cell surface which will always also involve a modification of CD13. […] The term polarization as used here shall denote a process in which a primarily spherical cell will transition into an oblong, elongated cell shape, via various intermediate states. This process which constitutes a change of shape controlled by the complex protein network is the prerequisite for cell migration, since only cells of oblong shape are capable of migrating. The polarization process therefore needs to precede all cell migration processes, including invasion. […]

For `CCCCC[C@H](CC(=O)NO)C(=O)N[C@H](C(=O)N1CCC[C@H]1CO)C(C)C` [actinonin], the “effectiveness as aminopeptidase inhibitor blocking polarization” value is “particularly effective”.
